This test concerns CazF. The class given is biochemical. The conditions noted are these: propargyl donor at MT domain; co-substrate acetoacetyl-SNAC (4).

The values below come from paper PMC3779521 (Organic letters, 2013).

The Km is the concentration of substrate that gives half-maximal velocity.

In the case of `C#CC[Se+](CC[C@H](N)C(=O)O)C[C@H]1O[C@@H](n2cnc3c(N)ncnc32)[C@H](O)[C@@H]1O` (stereo partly drawn) [compound 2, propargylic Se-adenosyl-L-methionine], the Km stood at 43.6 µM.
